Assay results from patent US20170119742A1, “MEDICAMENT FOR PREVENTING AND/OR TREATING STRESS DISEASES” (ONO PHARMACEUTICAL CO., LTD., priority 2014, published 2017).

Assays:
[1] = tested on: olfactory bulb isolated rats; test: Antidepressant effect: excessive emotional reactivity in olfactory bulb isolated rats; assay type: in vivo; details: rat, 0.3, 1 and 3 mg/kg oral once daily, before and after administration on day 7, p<0.01 Steel test
From the text: Male Crlj: WI rats (Charles River Laboratories Japan, Inc., at the time of surgery: 11 weeks old) were used to prepare an olfactory bulb isolated rat in accordance with Yamaguchi et al. method (Journal of the Pharmaceutical Society of Japan, Vol. 130, p. 175-183, 2007). The head of the anesthetized rat with pentobarbital sodium was fixed to brain stereotaxic apparatus (ASI Instruments Inc., NARISHIGE). After incising the scalp, holes to the left and right olfactory bulb region of the skull (7 mm forward and 1.8 mm laterally from bregma) were made with a dental drill. After aspirating and removing the left and right olfactory bulb by an aspirator coupled to an oral sonde which except for the tip, scalp was sutured. […] After 14 days of surgery, the excessive emotional reactivity was evaluated in accordance with the method of Gomita et al. (Journal of the Pharmaceutical Society of Japan, Vol. 82, p. 267-292, 1983). […]
A vehicle (physiological saline solution containing 0.5% Tween 80) or the compound of the present invention (0.3, 1 or 3 mg/kg) was orally administered to the olfactory bulb isolated rat repeatedly once daily for 8 days. […] On day 7, the excessive emotional reactivity was evaluated before and 1 hour after the administration.

[2] = Plasma concentration in monkeys (ex vivo occupancy study); details: male, rhesus monkey, once on day 4
Procedure: The vehicle (0.5 w/v % methylcellulose 400 cP solution) or the compound of the present invention (0.4 or 1 mg/kg) was orally administered twice daily for 3 days, once on day 4 to male rhesus monkeys (Shin Nippon Biomedical Laboratories, Ltd., at the time of use: 4 to 6 kg). After 2 hours of the final administration, in the same manner as Biological example 1, brain TSPO occupancy of the compound of the present invention relative to the specific binding of the vehicle control group was measured by measuring the specific binding amount of [3H] PBR28 on brain (anterior cingulate cortex, caudate nucleus, amygdala, hippocampus and occipital lobe) homogenates (n=3 in vehicle control group, n=5 in each the compound of the present invention treated group). As a result, the average TSPO occupancy of brain 5 sites was 37.9 and 56.6% in 0.4 and 1 mg/kg group of the compound of the present invention. The average plasma concentration of the compound of the present invention was 23.9 and 154 ng/mL in 0.4 and 1 mg/kg group.

brain TSPO = target: T1, brain TSPO (Homo sapiens, UniProt P30536); test: Brain occupancy using PET in humans (1), [11C] PBR28, Emax model; assay type: in vivo
T1 construct: from tissue; host or cells: living human brain (PET, healthy adults)
T1 sequence (P30536 whole entry): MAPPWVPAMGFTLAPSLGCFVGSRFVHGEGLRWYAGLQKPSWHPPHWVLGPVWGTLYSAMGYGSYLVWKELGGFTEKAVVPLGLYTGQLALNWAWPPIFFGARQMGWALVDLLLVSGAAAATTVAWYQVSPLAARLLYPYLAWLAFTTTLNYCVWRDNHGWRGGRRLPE
Procedure: Male and female healthy adults were used. The compound of the present invention (6 to 200 mg) was once orally administered. Before and after 24 hours of the administration, a PET measurement using [^11C] PBR28 was performed in the following manner.
Measurement equipment: PET; ECAT HR+(Siemens) Measurement methods: 90 minutes blank measurement and 10 to 15 minutes transmission measurement were performed using 68Ge/68Ga calibration source. Next, [^11C] PBR28 was intravenously bolus administrated over a period of about 30 seconds. Emission measurement (total 90 minutes, 26 frames) was started together with the administration while an arterial blood sampling for measuring the plasma concentration.
Brain occupancy, relative to the binding potential (BP) before the administration, was calculated by calculating the BP of each interest area from the brain radioactivity concentration time change of [^11C] PBR28, nonspecific binding amount and arterial blood plasma radioactivity which was corrected in a non-metabolic rate (n=3 to 4 in each group). Further, the average TSPO occupancy of all interest areas was determined from the Lassen plot that obtained by the horizontal axis of the distribution volume before administration and the vertical axis of the value obtained by subtracting the distribution volume after administration from the distribution volume before the administration for each interest area. […] As parameters in this model, Emax (a maximal effect) and EC50 (ng/mL) (a blood concentration which can be achieved 50% Emax) were used. An analysis software NONMEM7.1.2 (ICON Development Solutions) was used in this analysis. Parameters and formula of Emax model were shown in the following.
TSPO Occupancy (%)=(θ1×X)/(θ2+X)
X=Plasma concentration (ng/mL)

[3] = tested on: Wistar rats exposed to physical and mental stressors; test: Antistress effect: stool weight excreted during restraint stressor load in rats; assay type: in vivo; details: rat; for average stool wet weight: 2 h before 1 h restraint stressor, vehicle 1.79 g, normal 0.04 g
Procedure: Male Sic: Wistar rats (Japan SLC, Inc., at the time of use: 11 weeks old) was exposed to physical and mental stressors (Journal of Pharmacological Science, Vol. 104, p. 263-273, 2007). The vehicle (0.5 w/v % methylcellulose 400 cP solution) or the compound of the present invention (0.1, 0.3, 1 and 3 mg/kg) was orally administered. Two hours after the administration, the stressor load was started by putting the rat in a restraint stress cage (Natsume Seisakusho Co., Ltd.). The antistress effect was evaluated by measuring the stool weight which was excreted during the stressor load of 1 hour (n=12 in each group).

concentration at 2 h ([2]; 0.4 mg/kg oral twice daily 3 days): 23.9 ng/mL | concentration at 2 h ([2]; 1 mg/kg oral twice daily 3 days): 154 ng/mL | plasma concentration that makes brain TSPO occupancy reach about 50% (brain TSPO; Emax model): about 15 ng/mL | plasma concentration that makes brain TSPO occupancy reach about 85% (brain TSPO; Emax model): about 150 ng/mL | θ1 (=Emax), maximal effect of Emax model of TSPO occupancy (brain TSPO; [11C] PBR28, 6 to 200 mg single oral dose, NONMEM, in % (unit assumed)): 92.8±3.59 | EC50 (brain TSPO; [11C] PBR28, 6 to 200 mg single oral dose, NONMEM, read-out: θ2 (=EC50), blood concentration which can be achieved 50% Emax (converted)): 34.3 nM
SMILES: COc1cc(Cl)ccc1[C@H]1c2[nH]c3cccc(F)c3c2C2(CC2)CN1C(C)=O [the compound of the present invention, (1S)-2-acetyl-1-(4-chloro-2-methoxyphenyl)-5-fluoro-1,2,3,9-tetrahydrospiro[β-carboline-4,1′-cyclopropane]]
excessive emotional score compared with the vehicle control group [1]: significantly lower | average stool wet weight ([3]; 0.1 mg/kg oral): 1.48 g | average stool wet weight ([3]; 0.3 mg/kg oral): 0.96 g | average stool wet weight ([3]; 1 mg/kg oral): 0.60 g | average stool wet weight ([3]; 3 mg/kg oral): 0.67 g | effect on stool wet weight compared to the vehicle treated group ([3]; dose of 0.3, 1 and 3 mg/kg oral): significantly inhibit the stool wet weight
